Measured values published in patent publication US8173592B1, “Method for a programmed controlled ovarian stimulation protocol” (Zentaris IVF GmbH, priority 1999, dated 2012).
Non-standard residues stand in square brackets, D forms with d. Residues, ends and D or L forms follow the SMILES beside them. dPhe(4-Cl) = N[C@H](Cc1ccc(Cl)cc1)C(=O)O; d2Nal = N[C@H](Cc1ccc2ccccc2c1)C(=O)O; dCit = NC(=O)NCCC[C@@H](N)C(=O)O; d3Pal = N[C@H](Cc1cccnc1)C(=O)O

Key:
[1] = test system: women undergoing controlled ovarian stimulation; experiment: Controlled ovarian stimulation (COS) cycles programmed by oral contraceptives, with Gonal-F stimulation and Cetrotide 0.25 mg daily, in patients; type: in vivo
Method: A total of 30 patients, 15 from each German study center was enrolled for one treatment cycle. In the pre-treatment cycle, each patient received monophasic oral contraceptive(OC) pills containing 30 μg Estradiol in combination with levonogastrel. […] Cetrotide® 0.25 mg was given daily from the evening of stimulation day (s-day) 5/morning of s-day 6 until the day before hCG administration. On the basis of the ultrasound scans performed on s-day 9/10(s-day 9/10), and a calculation of follicular growth of 2 mm per day, hCG was administered to trigger ovulation (when >2 follicle's≧18 mm) were visualized.
Safety end-points were indicated and severity of adverse events.

[2] = test system: luteal regression / start of menses; details: 1 mg given in the luteal phase; previous use; cited from earlier work
[3] = last day of Cetrotide administration, 17 patients

Q: With `CC(=O)N[C@H](Cc1ccc2ccccc2c1)C(=O)N[C@H](Cc1ccc(Cl)cc1)C(=O)N[C@H](Cc1cccnc1)C(=O)N[C@@H](CO)C(=O)N[C@@H](Cc1ccc(O)cc1)C(=O)N[C@H](CCCNC(N)=O)C(=O)N[C@@H](CC(C)C)C(=O)N[C@@H](CCCNC(=N)N)C(=O)N1CCC[C@H]1C(=O)N[C@H](C)C(N)=O` [Cetrotide, cetrorelix] (Ac-[d2Nal][dPhe(4-Cl)][d3Pal]SY[dCit]LRP[dA]-NH2) as the compound, how does the adverse events ([1]; 17 patients) read?
A: no cases of OHSS nor adverse events

Q: What about the “cases of OHSS” value ([1]; 17 patients) of the same compound?
A: no cases

Q: What about the “difference between predicted and actual day of OPU, average” value ([1]; 17 patients) of the same compound?
A: 2 days

Q: And the “mean number of embryos transferred” value ([1]; 17 patients)?
A: 2

Q: And the “mean number of oocytes retrieved” value ([1]; 17 patients)?
A: 8.8

Q: What about the “patients receiving hCG who had ovum pick up and embryo transfer” value ([1]; 17 patients) of the same compound?
A: All 17 women who received hCG had ovum pick up and embryo transfer

Q: What about the “pregnancy rate per attempt/cycle” value ([1]; 17 patients) of the same compound?
A: 41%

Q: And the “efficacy in OC programmed cycles” value ([1]; conclusion)?
A: appears to be effective

Q: And the “tolerability in OC programmed cycles” value ([1]; conclusion)?
A: well tolerated

Q: And the “mean number of follicles with diameter 15-17 mm” value [1, 3]?
A: 4.9

Q: What about the “mean number of follicles with diameter ≦14 mm” value [1, 3] of the same compound?
A: 2.7

Q: And the “mean number of follicles with diameter ≧18 mm” value [1, 3]?
A: 2.7

Q: What about the “mean number of follicles ≧18 mm on s-day 9/10” value ([1]; preliminary results from 17 patients, stimulation day 9/10, Cetrotide 0.25 mg daily) of the same compound?
A: 2.2

Q: And the “start of menses after administration (luteal regression obtained)” value [2]?
A: 2 to 4 days
